Data from publication PMC6920847, “2-Hydroxy-N-phenylbenzamides and Their Esters Inhibit Acetylcholinesterase and Butyrylcholinesterase” (Biomolecules, 2019).
Where two headings read alike, the source gives them in different places.

What was measured:
[1] = target: T1, BuChE from equine serum (EqBuChE) (Equus caballus, UniProt P81908); assay: Inhibition of BuChE, modified Ellman's spectrophotometric method; assay type: biochemical; conditions: for IC50: mean ± SD, n = three experiments
T1 construct: butyrylcholinesterase was from an equine serum; purchased Sigma-Aldrich (Prague, Czech Republic); host or cells: equine serum (natural source)
Method: (§1) The IC50 values were determined using the spectrophotometric Ellman’s method modified according to Zdražilová et al., which is a simple, rapid and direct method to determine the SH and -S-S- group content in proteins. This method is widely used for the screening of the efficiency of cholinesterases inhibitors. The enzymatic activity is measured indirectly by quantifying the concentration of the 5-thio-2-nitrobenzoic acid ion formed in the reaction between the thiol reagent 5,5′-dithio-bis(2-nitrobenzoic acid) and thiocholine, a product of substrate hydrolysis (i.e., acetylthiocholine; ATCH) by cholinesterases.
(§2) The enzyme activity in final reaction mixture (2000 µL) was 0.2 U/mL, concentration of acetylthiocholine (or butyrylthiocholine, BTCH) 40 µM and concentration of 5,5′-dithio-bis(2-nitrobenzoic acid) 0.1 mM for all reactions. The tested compounds were dissolved in DMSO and then diluted in demineralized water to the concentration of 1 µM. […] All measurements were carried in triplicate and the average values of reaction rate (v0-uninhibited reaction, vi-inhibited reaction) were used for construction of the dependence v0/vi vs. concentration of inhibitor. From obtained equation of regression curve, the value of IC50 was calculated (based on the definition of IC50).
(§3) Acetylcholinesterase was obtained from electric eel (Electrophorus electricus L.) and butyrylcholinesterase was from an equine serum.
(§4) Thirty-six benzamides 1–4l were evaluated as potential inhibitors of AChE from electric eel (EeAChE) and BuChE from equine serum (EqBuChE) using Ellman’s spectrophotometric method modified according to Zdražilová et al.. Their efficacy is expressed as IC50, i.e., the concentration required for 50% inhibition of the enzymatic activity. Based on inhibition of both cholinesterases, we calculated selectivity indexes (SI) as the ratio of IC50 value for AChE/IC50 value for BuChE to express the selectivity quantitatively (Table 1).

[2] = target: T2, AChE from electric eel (EeAChE) (Electrophorus electricus, UniProt O42275); assay: Inhibition of AChE, modified Ellman's spectrophotometric method; assay type: biochemical, electric eel (Electrophorus electricus L.); conditions: for Selectivity AChE/BuChE: SI = IC50 for AChE/IC50 for BuChE, SI lower than 1 means selectivity for AChE
T2 construct: Acetylcholinesterase was obtained from electric eel (Electrophorus electricus L.); purchased Sigma-Aldrich (Prague, Czech Republic); host or cells: electric eel (natural source)
Method: as §1, §2, §3, §4

[3] = target: T2, AChE from electric eel (EeAChE); conditions: SI = IC50 for AChE/IC50 for BuChE; cited from earlier work
[4] = mean ± SD, n = three experiments, read-out: IC50 (EeAChE)
[5] = ratio of IC50 values vs parent 3k

T2 sequence (O42275 24-633): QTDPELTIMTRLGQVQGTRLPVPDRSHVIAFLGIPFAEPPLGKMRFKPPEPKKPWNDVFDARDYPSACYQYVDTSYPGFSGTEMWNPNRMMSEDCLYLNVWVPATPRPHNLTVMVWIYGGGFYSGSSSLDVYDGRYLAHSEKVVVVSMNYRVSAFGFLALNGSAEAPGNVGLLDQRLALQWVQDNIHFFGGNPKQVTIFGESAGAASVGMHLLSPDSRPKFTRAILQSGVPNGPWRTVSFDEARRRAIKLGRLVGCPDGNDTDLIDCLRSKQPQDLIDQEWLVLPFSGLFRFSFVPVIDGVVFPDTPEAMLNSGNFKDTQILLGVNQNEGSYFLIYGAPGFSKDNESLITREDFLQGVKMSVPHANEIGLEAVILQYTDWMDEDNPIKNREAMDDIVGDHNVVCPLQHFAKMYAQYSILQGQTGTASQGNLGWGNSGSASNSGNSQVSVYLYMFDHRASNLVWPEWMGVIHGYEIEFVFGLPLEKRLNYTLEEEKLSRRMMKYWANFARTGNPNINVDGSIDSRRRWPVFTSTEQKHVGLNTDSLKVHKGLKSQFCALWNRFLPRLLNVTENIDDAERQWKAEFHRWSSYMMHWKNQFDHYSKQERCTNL
T1 sequence (P81908 whole entry): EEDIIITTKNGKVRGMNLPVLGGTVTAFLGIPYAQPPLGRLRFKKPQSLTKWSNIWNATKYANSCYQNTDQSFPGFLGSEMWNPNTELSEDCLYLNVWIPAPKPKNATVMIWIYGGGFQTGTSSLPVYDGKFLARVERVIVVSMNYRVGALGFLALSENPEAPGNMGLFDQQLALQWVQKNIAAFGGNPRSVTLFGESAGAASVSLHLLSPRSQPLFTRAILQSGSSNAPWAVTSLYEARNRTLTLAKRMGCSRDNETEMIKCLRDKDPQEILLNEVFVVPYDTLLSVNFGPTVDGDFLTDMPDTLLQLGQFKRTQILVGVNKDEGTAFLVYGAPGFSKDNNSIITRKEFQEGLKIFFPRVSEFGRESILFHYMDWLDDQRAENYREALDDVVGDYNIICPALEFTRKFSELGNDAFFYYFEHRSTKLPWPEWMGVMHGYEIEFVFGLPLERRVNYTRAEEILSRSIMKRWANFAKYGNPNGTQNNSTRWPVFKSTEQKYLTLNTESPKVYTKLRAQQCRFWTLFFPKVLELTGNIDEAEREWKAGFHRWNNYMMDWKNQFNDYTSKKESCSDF

O=C1c2ccc(Cl)cc2OP(=O)(c2ccccc2)N1c1ccc(C(F)(F)F)cc1 (racemic) [Compound 5d, (RS)-7-Chloro-2-phenyl-3-[4-(trifluoromethyl)phenyl]-3-hydrobenzo[e][1,3,2]oxazaphosphinin-4-one 2-oxide]
IC50 ([1]; read-out: IC50 (EqBuChE)): 25 ± 0.3 µM | Selectivity AChE/BuChE [2]: 1.93 | IC50 [2, 4]: 48.1 ± 1.7 µM

O=C1c2ccc(Cl)cc2OP(=S)(c2ccccc2)N1c1ccc(C(F)(F)F)cc1 (racemic) [Compound 5e, (RS)-7-Chloro-2-phenyl-3-[4-(trifluoromethyl)phenyl]-3-hydrobenzo[e][1,3,2]oxazaphosphinin-4-one 2-sulfide]
IC50 ([1]; read-out: IC50 (EqBuChE)): 170 ± 13.6 µM | Selectivity AChE/BuChE [2]: 0.37 | IC50 [2, 4]: 63.5 ± 1.41 µM

O=C(Nc1ccccc1)c1ccccc1O [Compound 1, salicylanilide]
IC50 ([1]; read-out: IC50 (EqBuChE)): 206 ± 12.1 µM | Selectivity AChE/BuChE [2]: 0.24 | IC50 [2, 4]: 49.7 ± 3.73 µM

O=C(Nc1cccc(Cl)c1)c1cc(Cl)ccc1O [Compound 2a]
IC50 ([1]; read-out: IC50 (EqBuChE)): 228 ± 11.3 µM | Selectivity AChE/BuChE [2]: 0.26 | IC50 [2, 4]: 59.5 ± 3.8 µM

O=C(Nc1ccc(Cl)cc1)c1cc(Cl)ccc1O [Compound 2b]
IC50 ([1]; IC50 (EqBuChE)): 170 ± 3.09 µM | IC50 [2]: 76.5 ± 2.17 µM | Selectivity AChE/BuChE [2]: 0.45

O=C(Nc1ccc(Cl)c(Cl)c1)c1cc(Cl)ccc1O [Compound 2c]
IC50 ([1]; read-out: IC50 (EqBuChE)): 186 ± 15.7 µM | Selectivity AChE/BuChE [2]: 0.33 | IC50 [2, 4]: 60.8 ± 6.88 µM

O=C(Nc1cc(Cl)cc(Cl)c1)c1cc(Cl)ccc1O [Compound 2d, 5-Chloro-N-(3,5-dichlorophenyl)-2-hydroxybenzamide]
IC50 ([1]; read-out: IC50 (EqBuChE)): 112 ± 7.98 µM | Selectivity AChE/BuChE [2]: 0.41 | IC50 [2, 4]: 46.2 ± 0.63 µM

O=C(Nc1cc(Cl)c(Cl)c(Cl)c1)c1cc(Cl)ccc1O [Compound 2e, 5-Chloro-N-(3,4,5-trichlorophenyl)-2-hydroxybenzamide]
IC50 ([1]; read-out: IC50 (EqBuChE)): 102.7 ± 0.97 µM | Selectivity AChE/BuChE [2]: 0.50 | IC50 [2, 4]: 51.06 ± 0.49 µM

O=C(Nc1cccc(Br)c1)c1cc(Cl)ccc1O [Compound 2f]
IC50 ([1]; IC50 (EqBuChE)): 141 ± 1.13 µM | IC50 [2]: 50.03 ± 0.15 µM | Selectivity AChE/BuChE [2]: 0.35

O=C(Nc1ccc(Br)cc1)c1cc(Cl)ccc1O [Compound 2g]
IC50 ([1]; read-out: IC50 (EqBuChE)): 119 ± 6.65 µM | Selectivity AChE/BuChE [2]: 0.49 | IC50 [2, 4]: 58.2 ± 4.87 µM

O=C(Nc1cccc(F)c1)c1cc(Cl)ccc1O [Compound 2h]
IC50 ([1]; IC50 (EqBuChE)): 154 ± 8.38 µM | IC50 [2]: 58.6 ± 3.98 µM | Selectivity AChE/BuChE [2]: 0.38

O=C(Nc1ccc(F)cc1)c1cc(Cl)ccc1O [Compound 2i]
IC50 ([1]; IC50 (EqBuChE)): 133 ± 15.8 µM | IC50 [2]: 48.3 ± 8.9 µM | Selectivity AChE/BuChE [2]: 0.36

O=C(Nc1cccc(C(F)(F)F)c1)c1cc(Cl)ccc1O [Compound 2j]
IC50 ([1]; IC50 (EqBuChE)): 120 ± 3.02 µM | IC50 [2]: 54.41 ± 0.25 µM | Selectivity AChE/BuChE [2]: 0.45

O=C(Nc1cc(C(F)(F)F)cc(C(F)(F)F)c1)c1cc(Cl)ccc1O [Compound 2l]
IC50 ([1]; read-out: IC50 (EqBuChE)): 64.4 ± 1.34 µM | Selectivity AChE/BuChE [2]: 0.78 | IC50 [2, 4]: 50.2 ± 0.88 µM

O=C(Nc1cccc(Cl)c1)c1ccc(Cl)cc1O [Compound 3a]
IC50 ([1]; IC50 (EqBuChE)): 134.3 ± 0.24 µM | IC50 [2]: 58.1 ± 1.2 µM | Selectivity AChE/BuChE [2]: 0.43

O=C(Nc1ccc(Cl)cc1)c1ccc(Cl)cc1O [Compound 3b]
IC50 ([1]; IC50 (EqBuChE)): 152 ± 3.13 µM | IC50 [2]: 56.2 ± 3.23 µM | Selectivity AChE/BuChE [2]: 0.37

O=C(Nc1ccc(Cl)c(Cl)c1)c1ccc(Cl)cc1O [Compound 3c]
IC50 ([1]; read-out: IC50 (EqBuChE)): 100 ± 1.15 µM | Selectivity AChE/BuChE [2]: 0.46 | IC50 [2, 4]: 46.3 ± 0.56 µM

O=C(Nc1cc(Cl)cc(Cl)c1)c1ccc(Cl)cc1O [Compound 3d, 4-Chloro-N-(3,5-dichlorophenyl)-2-hydroxybenzamide]
IC50 ([1]; read-out: IC50 (EqBuChE)): 141 ± 2.8 µM | Selectivity AChE/BuChE [2]: 0.36 | IC50 [2, 4]: 50.15 ± 0.26 µM

O=C(Nc1cc(Cl)c(Cl)c(Cl)c1)c1ccc(Cl)cc1O [Compound 3e, 4-Chloro-N-(3,4,5-trichlorophenyl)-2-hydroxybenzamide]
IC50 ([1]; read-out: IC50 (EqBuChE)): 132 ± 4.31 µM | Selectivity AChE/BuChE [2]: 0.44 | IC50 [2, 4]: 57.8 ± 4.05 µM

O=C(Nc1cccc(Br)c1)c1ccc(Cl)cc1O [Compound 3f]
IC50 ([1]; read-out: IC50 (EqBuChE)): 168 ± 2.06 µM | Selectivity AChE/BuChE [2]: 0.36 | IC50 [2, 4]: 60.03 ± 0.42 µM

O=C(Nc1ccc(Br)cc1)c1ccc(Cl)cc1O [Compound 3g]
IC50 ([1]; IC50 (EqBuChE)): 174 ± 4.02 µM | IC50 [2]: 58.3 ± 1.57 µM | Selectivity AChE/BuChE [2]: 0.34

O=C(Nc1cccc(F)c1)c1ccc(Cl)cc1O [Compound 3h]
IC50 ([1]; IC50 (EqBuChE)): 146 ± 4.07 µM | IC50 [2]: 60.8 ± 1.74 µM | Selectivity AChE/BuChE [2]: 0.42

O=C(Nc1ccc(F)cc1)c1ccc(Cl)cc1O [Compound 3i]
IC50 ([1]; IC50 (EqBuChE)): 152 ± 7.58 µM | IC50 [2]: 62.8 ± 1.53 µM | Selectivity AChE/BuChE [2]: 0.41

O=C(Nc1cccc(C(F)(F)F)c1)c1ccc(Cl)cc1O [Compound 3j]
IC50 ([1]; IC50 (EqBuChE)): 163 ± 11.7 µM | IC50 [2]: 68.3 ± 3.78 µM | Selectivity AChE/BuChE [2]: 0.42

O=C(Nc1ccc(C(F)(F)F)cc1)c1ccc(Cl)cc1O [Compound 3k, 4-chloro-2-hydroxy-N-[4-(trifluoromethyl)phenyl]benzamide]
IC50 ([1]; IC50 (EqBuChE)): 200 ± 2.02 µM | IC50 [2]: 60.3 ± 2.39 µM | Selectivity AChE/BuChE [2]: 0.30

O=C(Nc1cc(C(F)(F)F)cc(C(F)(F)F)c1)c1ccc(Cl)cc1O [Compound 3l]
IC50 ([1]; read-out: IC50 (EqBuChE)): 150.5 ± 0.87 µM | Selectivity AChE/BuChE [2]: 0.36 | IC50 [2, 4]: 54.7 ± 2.05 µM

O=C(Nc1cccc(Cl)c1)c1cc(Br)ccc1O [Compound 4a]
IC50 ([1]; IC50 (EqBuChE)): 134 ± 1.63 µM | IC50 [2]: 62 ± 6.48 µM | Selectivity AChE/BuChE [2]: 0.46

O=C(Nc1ccc(Cl)cc1)c1cc(Br)ccc1O [Compound 4b]
IC50 ([1]; IC50 (EqBuChE)): 131 ± 3.99 µM | IC50 [2]: 85.8 ± 6.1 µM | Selectivity AChE/BuChE [2]: 0.66

O=C(Nc1ccc(Cl)c(Cl)c1)c1cc(Br)ccc1O [Compound 4c]
IC50 ([1]; read-out: IC50 (EqBuChE)): 123 ± 7.2 µM | Selectivity AChE/BuChE [2]: 0.50 | IC50 [2, 4]: 60.8 ± 3.65 µM

O=C(Nc1cc(Cl)cc(Cl)c1)c1cc(Br)ccc1O [Compound 4d, 5-Bromo-N-(3,5-dichlorophenyl)-2-hydroxybenzamide]
IC50 ([1]; read-out: IC50 (EqBuChE)): 135.9 ± 0.14 µM | Selectivity AChE/BuChE [2]: 0.24 | IC50 [2, 4]: 33.1 ± 0.47 µM

O=C(Nc1cc(Cl)c(Cl)c(Cl)c1)c1cc(Br)ccc1O [Compound 4e, 5-Bromo-N-(3,4,5-trichlorophenyl)-2-hydroxybenzamide]
IC50 ([1]; read-out: IC50 (EqBuChE)): 140 ± 6.2 µM | Selectivity AChE/BuChE [2]: 0.30 | IC50 [2, 4]: 42.1 ± 2.41 µM

O=C(Nc1cccc(Br)c1)c1cc(Br)ccc1O [Compound 4f]
IC50 ([1]; IC50 (EqBuChE)): 146 ± 3.53 µM | IC50 [2]: 69.7 ± 9.97 µM | Selectivity AChE/BuChE [2]: 0.48

O=C(Nc1ccc(Br)cc1)c1cc(Br)ccc1O [Compound 4g]
IC50 ([1]; read-out: IC50 (EqBuChE)): 112 ± 1.79 µM | Selectivity AChE/BuChE [2]: 0.63 | IC50 [2, 4]: 70.3 ± 2.85 µM

O=C(Nc1cccc(F)c1)c1cc(Br)ccc1O [Compound 4h]
IC50 ([1]; IC50 (EqBuChE)): 119 ± 2.53 µM | IC50 [2]: 54.4 ± 0.73 µM | Selectivity AChE/BuChE [2]: 0.46

O=C(Nc1ccc(F)cc1)c1cc(Br)ccc1O [Compound 4i]
IC50 ([1]; IC50 (EqBuChE)): 137 ± 1.47 µM | IC50 [2]: 61.2 ± 1.08 µM | Selectivity AChE/BuChE [2]: 0.45

O=C(Nc1cccc(C(F)(F)F)c1)c1cc(Br)ccc1O [Compound 4j, 5-bromo-2-hydroxy-N-[3-(trifluoromethyl)phenyl]benzamide]
IC50 ([1]; IC50 (EqBuChE)): 117 ± 2.23 µM | IC50 [2]: 42.67 ± 0.18 µM | Selectivity AChE/BuChE [2]: 0.36

O=C(Nc1ccc(C(F)(F)F)cc1)c1cc(Br)ccc1O [Compound 4k]
IC50 ([1]; IC50 (EqBuChE)): 134.8 ± 0.86 µM | IC50 [2]: 44.8 ± 3.44 µM | Selectivity AChE/BuChE [2]: 0.33

O=C(Nc1cc(C(F)(F)F)cc(C(F)(F)F)c1)c1cc(Br)ccc1O [Compound 4l]
IC50 ([1]; IC50 (EqBuChE)): 53.5 ± 3.2 µM | IC50 [2]: 48.5 ± 1.07 µM | Selectivity AChE/BuChE [2]: 0.91

CCOP(=S)(OCC)Oc1cc(Cl)ccc1C(=O)Nc1ccc(C(F)(F)F)cc1 [Compound 5b]
Enhancement of BuChE inhibition compared to parent 3k [1, 5]: up to 20.3 times | Enhancement of AChE inhibition compared to parent 3k [2, 5]: 6.6 times | Selectivity AChE/BuChE [3]: 0.50
